Among the data in ChEMBL document CHEMBL1152560, “Substituted 2-arylbenzothiazoles as kinase inhibitors: hit-to-lead optimization” (Bioorg Med Chem, 2009) are residual activity values, retold here.

In test [1] the target is T1, Protein kinase C epsilon type (Homo sapiens) (UniProt Q02156).
T1 sequence (whole entry): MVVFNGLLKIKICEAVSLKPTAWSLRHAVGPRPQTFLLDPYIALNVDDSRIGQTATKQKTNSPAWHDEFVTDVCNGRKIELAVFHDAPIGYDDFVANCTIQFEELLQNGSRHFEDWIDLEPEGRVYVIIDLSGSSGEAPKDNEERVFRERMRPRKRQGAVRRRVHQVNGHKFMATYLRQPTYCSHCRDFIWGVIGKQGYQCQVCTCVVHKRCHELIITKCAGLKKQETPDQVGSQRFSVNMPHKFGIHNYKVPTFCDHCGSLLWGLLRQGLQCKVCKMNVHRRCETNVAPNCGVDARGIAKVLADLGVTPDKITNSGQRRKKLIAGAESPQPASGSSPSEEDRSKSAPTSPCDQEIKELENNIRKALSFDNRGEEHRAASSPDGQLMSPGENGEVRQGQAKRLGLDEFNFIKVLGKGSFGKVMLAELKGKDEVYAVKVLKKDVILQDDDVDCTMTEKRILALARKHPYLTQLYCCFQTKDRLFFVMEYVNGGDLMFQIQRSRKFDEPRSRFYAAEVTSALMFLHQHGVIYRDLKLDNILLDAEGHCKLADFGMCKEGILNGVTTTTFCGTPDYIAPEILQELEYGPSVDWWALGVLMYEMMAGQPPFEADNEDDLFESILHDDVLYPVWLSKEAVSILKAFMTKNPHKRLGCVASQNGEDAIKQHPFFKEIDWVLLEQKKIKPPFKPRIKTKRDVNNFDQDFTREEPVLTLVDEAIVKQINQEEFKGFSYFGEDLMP
Briefly: Residual activity of PKCepsilon at 10 uM by microplate scintillation counting.

Test [2] has as its target Tyrosine-protein kinase Lyn (Homo sapiens) (UniProt P07948). The test can be described thus: Residual activity of LYN at 0.1 uM by microplate scintillation counting.
Test [3] has as its target Casein kinase II subunit alpha' (Homo sapiens) (UniProt P19784). Briefly: Residual activity of CK2alpha2 at 1 uM by microplate scintillation counting.
Test [4] deals with T2, NUAK family SNF1-like kinase 1 (Homo sapiens) (UniProt O60285).
T2 sequence (whole entry): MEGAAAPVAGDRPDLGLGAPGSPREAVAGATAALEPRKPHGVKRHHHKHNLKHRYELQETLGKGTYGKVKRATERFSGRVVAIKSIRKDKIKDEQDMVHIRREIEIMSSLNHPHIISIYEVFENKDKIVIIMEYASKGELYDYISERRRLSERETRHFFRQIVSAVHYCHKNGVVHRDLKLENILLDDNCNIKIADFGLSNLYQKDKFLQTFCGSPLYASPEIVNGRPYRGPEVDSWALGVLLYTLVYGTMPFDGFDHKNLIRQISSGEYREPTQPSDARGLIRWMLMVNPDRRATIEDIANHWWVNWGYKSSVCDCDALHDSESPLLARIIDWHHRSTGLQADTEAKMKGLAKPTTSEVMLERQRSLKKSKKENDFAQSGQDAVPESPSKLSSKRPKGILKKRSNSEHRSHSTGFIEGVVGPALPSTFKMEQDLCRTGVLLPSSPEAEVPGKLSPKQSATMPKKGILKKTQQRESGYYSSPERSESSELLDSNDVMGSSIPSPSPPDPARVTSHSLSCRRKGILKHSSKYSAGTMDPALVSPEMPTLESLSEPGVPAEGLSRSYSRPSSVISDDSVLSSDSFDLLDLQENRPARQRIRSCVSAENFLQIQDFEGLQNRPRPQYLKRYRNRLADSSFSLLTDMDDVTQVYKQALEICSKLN
The test can be described thus: Residual activity of ARK5 at 0.1 uM by microplate scintillation counting.

Test [5] addresses Platelet-derived growth factor receptor alpha (Homo sapiens) (UniProt P16234). The test can be described thus: Residual activity of PDGFRalpha at 0.1 uM by microplate scintillation counting.
In test [6] the target is Receptor-interacting serine/threonine-protein kinase 2 (Homo sapiens) (UniProt O43353). Briefly: Residual activity of RIPK2 at 1 uM by microplate scintillation counting.
For test [7], the target named is T3, Ephrin type-B receptor 4 (Homo sapiens) (UniProt P54760).
T3 sequence (whole entry): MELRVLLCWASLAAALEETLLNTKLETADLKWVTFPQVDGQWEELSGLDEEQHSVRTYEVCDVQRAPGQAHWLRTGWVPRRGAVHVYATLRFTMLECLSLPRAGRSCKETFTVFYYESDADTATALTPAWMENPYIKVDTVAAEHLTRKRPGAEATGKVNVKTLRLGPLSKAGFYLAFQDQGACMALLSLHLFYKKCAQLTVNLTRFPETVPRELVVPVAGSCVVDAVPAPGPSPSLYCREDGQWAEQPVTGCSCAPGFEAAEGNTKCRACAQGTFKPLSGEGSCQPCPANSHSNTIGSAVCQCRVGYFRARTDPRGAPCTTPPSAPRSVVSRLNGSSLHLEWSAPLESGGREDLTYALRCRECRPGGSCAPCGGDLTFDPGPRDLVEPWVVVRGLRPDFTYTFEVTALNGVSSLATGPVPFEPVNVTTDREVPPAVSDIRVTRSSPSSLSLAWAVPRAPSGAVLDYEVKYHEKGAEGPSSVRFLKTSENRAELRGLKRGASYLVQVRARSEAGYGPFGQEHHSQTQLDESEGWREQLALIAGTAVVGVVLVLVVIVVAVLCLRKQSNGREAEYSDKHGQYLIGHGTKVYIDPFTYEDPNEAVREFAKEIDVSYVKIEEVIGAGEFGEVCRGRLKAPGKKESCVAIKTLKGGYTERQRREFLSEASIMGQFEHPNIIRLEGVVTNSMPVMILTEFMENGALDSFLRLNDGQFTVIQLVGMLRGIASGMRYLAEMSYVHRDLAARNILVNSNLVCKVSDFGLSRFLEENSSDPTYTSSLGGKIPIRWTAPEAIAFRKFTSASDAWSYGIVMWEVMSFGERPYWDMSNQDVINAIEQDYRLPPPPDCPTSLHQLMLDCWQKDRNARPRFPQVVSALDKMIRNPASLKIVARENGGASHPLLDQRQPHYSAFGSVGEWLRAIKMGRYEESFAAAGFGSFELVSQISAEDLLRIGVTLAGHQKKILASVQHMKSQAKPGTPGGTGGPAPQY
The test can be described thus: Residual activity of EPHB4 at 10 uM by microplate scintillation counting.

The target in test [8] is Serine/threonine-protein kinase PLK2 (Homo sapiens) (UniProt Q9NYY3). Briefly: Residual activity of SNK at 0.1 uM by microplate scintillation counting.
For test [9], the target named is Tyrosine-protein kinase FRK (Homo sapiens) (UniProt P42685). Briefly: Residual activity of FRK at 1 uM by microplate scintillation counting.
In test [10] the target is Tyrosine-protein kinase Fes/Fps (Homo sapiens) (UniProt P07332). The test can be described thus: Residual activity of FES at 0.1 uM by microplate scintillation counting.
The target in test [11] is Mitogen-activated protein kinase 10 (Homo sapiens) (UniProt P53779). Briefly: Residual activity of JNK3 at 0.1 uM by microplate scintillation counting.

The structures appear in SMILES notation.

Tyrosine-protein kinase FRK (Homo sapiens), sequence (P42685 whole entry): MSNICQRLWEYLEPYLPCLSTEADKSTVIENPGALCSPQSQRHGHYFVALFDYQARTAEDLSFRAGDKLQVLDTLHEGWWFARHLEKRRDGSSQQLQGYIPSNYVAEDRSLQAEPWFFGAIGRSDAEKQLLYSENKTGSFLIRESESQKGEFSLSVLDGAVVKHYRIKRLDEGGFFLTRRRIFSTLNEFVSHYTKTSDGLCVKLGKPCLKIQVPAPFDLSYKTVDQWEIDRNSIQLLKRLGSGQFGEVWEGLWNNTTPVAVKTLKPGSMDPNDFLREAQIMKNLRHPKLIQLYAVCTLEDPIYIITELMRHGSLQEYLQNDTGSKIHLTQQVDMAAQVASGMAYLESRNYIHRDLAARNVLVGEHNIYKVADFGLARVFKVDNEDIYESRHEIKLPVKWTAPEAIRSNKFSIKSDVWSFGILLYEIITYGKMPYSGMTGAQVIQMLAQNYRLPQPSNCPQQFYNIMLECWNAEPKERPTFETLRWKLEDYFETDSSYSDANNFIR
Receptor-interacting serine/threonine-protein kinase 2 (Homo sapiens), sequence (O43353 whole entry): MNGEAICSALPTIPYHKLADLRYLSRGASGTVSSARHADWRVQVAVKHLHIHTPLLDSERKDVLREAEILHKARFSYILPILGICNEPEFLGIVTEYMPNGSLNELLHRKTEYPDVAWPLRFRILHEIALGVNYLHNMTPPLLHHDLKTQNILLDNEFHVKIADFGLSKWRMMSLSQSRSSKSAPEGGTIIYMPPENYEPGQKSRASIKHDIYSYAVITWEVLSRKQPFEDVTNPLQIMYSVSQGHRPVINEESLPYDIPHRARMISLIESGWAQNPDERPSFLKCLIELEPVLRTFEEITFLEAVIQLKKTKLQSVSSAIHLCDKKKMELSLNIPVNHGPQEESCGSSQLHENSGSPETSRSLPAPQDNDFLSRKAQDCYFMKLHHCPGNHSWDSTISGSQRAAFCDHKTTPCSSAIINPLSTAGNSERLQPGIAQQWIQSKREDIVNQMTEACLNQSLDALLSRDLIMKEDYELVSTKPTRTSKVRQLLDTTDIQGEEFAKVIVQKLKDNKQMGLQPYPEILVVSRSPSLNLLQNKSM
Platelet-derived growth factor receptor alpha (Homo sapiens), sequence (P16234 whole entry): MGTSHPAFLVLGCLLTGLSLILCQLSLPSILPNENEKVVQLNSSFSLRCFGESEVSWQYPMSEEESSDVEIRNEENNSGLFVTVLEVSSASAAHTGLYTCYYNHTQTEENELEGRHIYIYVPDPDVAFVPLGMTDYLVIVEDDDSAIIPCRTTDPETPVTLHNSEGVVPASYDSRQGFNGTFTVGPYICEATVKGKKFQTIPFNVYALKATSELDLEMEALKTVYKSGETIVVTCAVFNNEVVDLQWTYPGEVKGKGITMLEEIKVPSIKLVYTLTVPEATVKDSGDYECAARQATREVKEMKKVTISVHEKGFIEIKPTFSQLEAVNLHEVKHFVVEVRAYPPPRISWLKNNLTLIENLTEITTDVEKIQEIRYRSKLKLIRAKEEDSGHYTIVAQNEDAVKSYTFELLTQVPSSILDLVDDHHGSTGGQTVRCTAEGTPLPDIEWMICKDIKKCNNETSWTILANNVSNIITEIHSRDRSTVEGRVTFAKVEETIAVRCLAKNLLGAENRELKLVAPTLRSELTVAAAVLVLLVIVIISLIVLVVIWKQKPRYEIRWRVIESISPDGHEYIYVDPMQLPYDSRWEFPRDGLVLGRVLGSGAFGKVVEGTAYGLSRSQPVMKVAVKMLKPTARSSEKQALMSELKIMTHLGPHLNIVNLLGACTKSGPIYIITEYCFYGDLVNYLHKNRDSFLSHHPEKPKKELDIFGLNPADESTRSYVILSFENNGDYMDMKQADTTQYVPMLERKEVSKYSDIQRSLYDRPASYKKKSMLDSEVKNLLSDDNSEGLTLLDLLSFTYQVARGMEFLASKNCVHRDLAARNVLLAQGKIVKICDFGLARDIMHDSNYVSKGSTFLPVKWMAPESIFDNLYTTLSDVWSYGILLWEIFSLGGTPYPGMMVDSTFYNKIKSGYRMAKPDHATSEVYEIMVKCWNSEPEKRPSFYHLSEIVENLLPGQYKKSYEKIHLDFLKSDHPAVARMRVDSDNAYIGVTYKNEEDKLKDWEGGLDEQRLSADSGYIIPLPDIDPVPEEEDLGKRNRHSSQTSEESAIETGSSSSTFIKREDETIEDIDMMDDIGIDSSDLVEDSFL
Serine/threonine-protein kinase PLK2 (Homo sapiens), sequence (Q9NYY3 whole entry, looked up): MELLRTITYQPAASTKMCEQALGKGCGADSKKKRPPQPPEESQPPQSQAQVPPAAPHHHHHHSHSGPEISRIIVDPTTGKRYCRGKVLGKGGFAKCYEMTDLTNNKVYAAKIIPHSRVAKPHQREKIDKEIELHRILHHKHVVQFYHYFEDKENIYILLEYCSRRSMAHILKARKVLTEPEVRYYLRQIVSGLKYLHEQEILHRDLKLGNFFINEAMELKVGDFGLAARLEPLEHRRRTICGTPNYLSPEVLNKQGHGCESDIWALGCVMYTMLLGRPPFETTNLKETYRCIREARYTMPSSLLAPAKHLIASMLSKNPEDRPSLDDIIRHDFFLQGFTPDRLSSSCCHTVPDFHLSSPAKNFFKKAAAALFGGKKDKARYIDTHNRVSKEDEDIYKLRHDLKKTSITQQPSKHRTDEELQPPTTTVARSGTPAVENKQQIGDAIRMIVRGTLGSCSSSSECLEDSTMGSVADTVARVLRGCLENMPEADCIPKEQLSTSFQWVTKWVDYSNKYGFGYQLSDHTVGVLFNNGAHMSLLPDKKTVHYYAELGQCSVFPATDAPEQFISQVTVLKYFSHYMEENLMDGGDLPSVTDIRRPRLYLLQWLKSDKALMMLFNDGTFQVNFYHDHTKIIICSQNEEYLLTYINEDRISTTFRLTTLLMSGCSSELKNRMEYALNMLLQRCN
Tyrosine-protein kinase Fes/Fps (Homo sapiens), sequence (P07332 whole entry): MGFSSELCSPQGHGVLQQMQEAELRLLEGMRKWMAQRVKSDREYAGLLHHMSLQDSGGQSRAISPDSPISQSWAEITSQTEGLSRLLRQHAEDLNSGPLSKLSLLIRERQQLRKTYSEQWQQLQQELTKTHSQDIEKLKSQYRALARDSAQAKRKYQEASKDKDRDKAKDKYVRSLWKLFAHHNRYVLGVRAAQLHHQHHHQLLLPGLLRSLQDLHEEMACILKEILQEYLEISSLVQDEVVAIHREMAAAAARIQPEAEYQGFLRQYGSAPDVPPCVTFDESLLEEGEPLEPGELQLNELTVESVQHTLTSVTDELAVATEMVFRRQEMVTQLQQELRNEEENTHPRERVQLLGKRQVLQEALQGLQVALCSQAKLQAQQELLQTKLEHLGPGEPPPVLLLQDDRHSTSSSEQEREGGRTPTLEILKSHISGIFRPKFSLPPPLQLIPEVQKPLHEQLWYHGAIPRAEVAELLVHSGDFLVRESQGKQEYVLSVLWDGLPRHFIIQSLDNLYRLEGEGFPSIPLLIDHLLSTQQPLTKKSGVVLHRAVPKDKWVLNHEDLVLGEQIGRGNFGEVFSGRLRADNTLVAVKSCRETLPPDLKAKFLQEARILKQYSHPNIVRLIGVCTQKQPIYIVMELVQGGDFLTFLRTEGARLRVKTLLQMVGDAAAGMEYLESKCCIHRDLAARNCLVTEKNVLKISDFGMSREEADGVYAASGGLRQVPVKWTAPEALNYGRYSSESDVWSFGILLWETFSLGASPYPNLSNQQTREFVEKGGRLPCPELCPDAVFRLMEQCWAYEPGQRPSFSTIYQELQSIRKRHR
Mitogen-activated protein kinase 10 (Homo sapiens), sequence (P53779 whole entry): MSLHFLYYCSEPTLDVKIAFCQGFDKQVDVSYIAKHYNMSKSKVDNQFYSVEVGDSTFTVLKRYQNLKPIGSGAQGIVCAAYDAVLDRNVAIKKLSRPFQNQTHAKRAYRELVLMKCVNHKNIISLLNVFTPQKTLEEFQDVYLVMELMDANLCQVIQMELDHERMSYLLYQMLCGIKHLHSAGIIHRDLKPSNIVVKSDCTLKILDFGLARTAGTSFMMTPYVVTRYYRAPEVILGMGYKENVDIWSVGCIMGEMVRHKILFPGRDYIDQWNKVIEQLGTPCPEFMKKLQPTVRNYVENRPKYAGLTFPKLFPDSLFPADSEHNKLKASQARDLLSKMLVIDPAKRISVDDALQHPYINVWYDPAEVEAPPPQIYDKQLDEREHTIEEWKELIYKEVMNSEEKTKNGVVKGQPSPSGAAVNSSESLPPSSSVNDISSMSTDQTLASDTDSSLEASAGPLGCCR
Casein kinase II subunit alpha' (Homo sapiens), sequence (P19784 whole entry, looked up): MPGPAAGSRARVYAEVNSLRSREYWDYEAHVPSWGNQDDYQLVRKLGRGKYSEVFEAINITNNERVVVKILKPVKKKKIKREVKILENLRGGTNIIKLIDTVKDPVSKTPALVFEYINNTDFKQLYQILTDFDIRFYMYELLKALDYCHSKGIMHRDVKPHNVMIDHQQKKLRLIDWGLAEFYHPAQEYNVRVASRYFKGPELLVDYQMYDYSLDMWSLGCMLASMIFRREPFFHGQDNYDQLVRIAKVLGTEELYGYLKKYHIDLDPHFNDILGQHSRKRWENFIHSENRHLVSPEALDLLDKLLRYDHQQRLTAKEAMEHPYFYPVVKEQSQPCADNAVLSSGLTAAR
Tyrosine-protein kinase Lyn (Homo sapiens), sequence (P07948 2-512 limits assumed): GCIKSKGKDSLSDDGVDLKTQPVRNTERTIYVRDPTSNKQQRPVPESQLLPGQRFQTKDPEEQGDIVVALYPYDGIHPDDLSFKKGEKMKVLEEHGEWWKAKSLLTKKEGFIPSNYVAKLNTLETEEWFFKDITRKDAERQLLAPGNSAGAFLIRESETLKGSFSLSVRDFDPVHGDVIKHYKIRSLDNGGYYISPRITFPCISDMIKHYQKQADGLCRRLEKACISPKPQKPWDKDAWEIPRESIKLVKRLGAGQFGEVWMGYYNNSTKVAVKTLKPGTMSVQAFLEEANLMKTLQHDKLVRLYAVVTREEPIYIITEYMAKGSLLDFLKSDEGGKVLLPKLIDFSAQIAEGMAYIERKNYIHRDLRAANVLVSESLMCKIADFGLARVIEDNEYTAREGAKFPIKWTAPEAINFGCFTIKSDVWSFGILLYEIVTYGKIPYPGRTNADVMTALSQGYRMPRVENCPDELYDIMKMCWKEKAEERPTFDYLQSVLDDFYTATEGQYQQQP

`COc1cc2c(Oc3ccc(-c4nc5ccccc5s4)cc3)ncnc2cc1OCCCN1CCN(C)CC1`: the residual activity is 128% in [1]; 112% in test [2]; 96% in [3]; 98% in test [4]; 86% in [5]; 25% in [6]. For the same molecule, the residual activity is 154% in [7]; 89% in test [8]; 84% in test [9]; 102% in test [10]; 113% in test [11].
`COc1cc2c(Oc3ccc(-c4nc5ccccc5s4)cc3)ncnc2cc1OCCCN1CCCC1`: the residual activity in [1] was determined as 142%; in test [2] it was 108%; in test [3], 88%; in test [4], 83%; in test [5], 86%; in [6] it was 29%. Further, the residual activity in [7] came to 122%; in [8], 108%; in test [9], 95%; in test [10], 107%; in test [11], 100%.
As to `COc1cc2c(Oc3ccc(-c4nc5ccccc5s4)cc3F)ncnc2cc1OCCCN1CCN(C)CC1`, the residual activity came out at 135% in [1]; 102% in test [2]; 89% in [3]; 94% in test [4]; 94% in [5]; 29% in test [6]. The residual activity was 99% in test [7]; 89% in test [8]; 90% in [9]; 101% in test [10]; 87% in test [11].
